Assay results: ChEMBL document CHEMBL1123242, “Derivatives of 1-(1,3-benzodioxol-5-yl)-2-butanamine: representatives of a novel therapeutic class” (1986)

Columns and labels:
Assay type in all cases: functional
[1] = test system: Rattus norvegicus; assay: Compound was tested for hallucinogenic activity in rats at 0.32(mg/kg)
[2] = test system: Rattus norvegicus; assay: Compound was tested for hallucinogenic activity in rats at the dose 0 (mg/kg)
[3] = test system: Rattus norvegicus; assay: Compound was tested for hallucinogenic activity in rats at 0.32dose (mg/kg); Number of rats selecting the LSD lever/ number of rats responding (0/8)
[4] = test system: Rattus norvegicus; assay: Compound was tested for hallucinogenic activity in rats at 0.63 dose(mg/kg); Number of rats selecting the LSD lever/ number of rats responding (2/8)
[5] = test system: Rattus norvegicus; assay: Compound was tested for hallucinogenic activity in rats at 1.72 dose(mg/kg); Number of rats selecting the LSD lever/ number of rats responding (7/8)
[6] = test system: Rattus norvegicus; assay: Compound was tested for hallucinogenic activity in rats at 1.29 dose(mg/kg); Number of rats selecting the LSD lever/ number of rats responding (5/8)
[7] = test system: Rattus norvegicus; assay: Compound was tested for hallucinogenic activity in rats at 0.69 dose(mg/kg); Number of rats selecting the LSD lever/ number of rats responding (2/9)
[8] = test system: Rattus norvegicus; assay: Compound was tested for hallucinogenic activity in rats at 2.07dose (mg/kg); Number of rats selecting the LSD lever/ number of rats responding (3/8)
[9] = test system: Rattus norvegicus; assay: Compound was tested for hallucinogenic activity in rats at 2.41 dose (mg/kg); Number of rats selecting the LSD lever/ number of rats responding (3/8)
[10] = test system: Rattus norvegicus; assay: Compound was tested for hallucinogenic activity in rats at 2.76 dose (mg/kg); Number of rats selecting the LSD lever/ number of rats responding (3/9)
[11] = test system: Rattus norvegicus; assay: Compound was tested for hallucinogenic activity in rats at 3.44 dose (mg/kg); Number of rats selecting the LSD lever/ number of rats responding (4/8)
[12] = test system: Rattus norvegicus; assay: Compound was tested for hallucinogenic activity in rats at 4.14 dose (mg/kg); 2/4, highest dose tested
[13] = test system: Rattus norvegicus; assay: Compound was tested for hallucinogenic activity in rats at 1.72 dose(mg/kg); Number of rats selecting the LSD lever/ number of rats responding (4/8)
[14] = test system: Rattus norvegicus; assay: Compound was tested for hallucinogenic activity in rats at dose 1.38(mg/kg); Number of rats selecting the LSD lever/ number of rats responding (2/8)
[15] = test system: Rattus norvegicus; assay: Compound was tested for hallucinogenic activity in rats at the dose 0.17(mg/kg); Number of rats selecting the LSD lever/ number of rats responding (1/8)
[16] = test system: Rattus norvegicus; assay: Compound was tested for hallucinogenic activity in rats at the dose 0.34(mg/kg); Number of rats selecting the LSD lever/ number of rats responding (3/8
[17] = test system: Rattus norvegicus; assay: Compound was tested for hallucinogenic activity in rats at 1.62 dose(mg/kg); Number of rats selecting the LSD lever/ number of rats responding (2/6)
[18] = test system: Rattus norvegicus; assay: Compound was tested for hallucinogenic activity in rats at dose 1.29(mg/kg); Number of rats selecting the LSD lever/ number of rats responding (3/8)
[19] = test system: Rattus norvegicus; assay: Compound was tested for hallucinogenic activity in rats at the dose 0.16(mg/kg); Number of rats selecting the LSD lever/ number of rats responding (1/8)
[20] = test system: Rattus norvegicus; assay: Compound was tested for hallucinogenic activity in rats at the dose 0.32(mg/kg); Number of rats selecting the LSD lever/ number of rats responding (2/8)
[21] = test system: Rattus norvegicus; assay: Compound was tested for hallucinogenic activity in rats at 1.73 dose(mg/kg); 0/0, highest dose tested
[22] = test system: Rattus norvegicus; assay: Compound was tested for hallucinogenic activity in rats at the dose 0.17 (mg/kg)
[23] = test system: Rattus norvegicus; assay: Compound was tested for hallucinogenic activity in rats at the dose 1.38 (mg/kg)
[24] = test system: Rattus norvegicus; assay: Compound was tested for hallucinogenic activity in rats at 0.69 dose(mg/kg); Number of rats selecting the LSD lever/ number of rats responding (1/8)
[25] = test system: Rattus norvegicus; assay: Compound was tested for hallucinogenic activity in rats at 2.41 dose(mg/kg); Number of rats selecting the LSD lever/ number of rats responding (8/8)
[26] = test system: Rattus norvegicus; assay: Compound was tested for hallucinogenic activity in rats at 1.72 dose (mg/kg); Number of rats selecting the LSD lever/ number of rats responding (2/8)
[27] = test system: Rattus norvegicus; assay: Compound was tested for hallucinogenic activity in rats at 2.07 dose(mg/kg); Number of rats selecting the LSD lever/ number of rats responding (3/8)
[28] = test system: Rattus norvegicus; assay: Compound was tested for hallucinogenic activity in rats at dose 1.38 (mg/kg); Number of rats selecting the LSD lever/ number of rats responding (3/8)
[29] = test system: Rattus norvegicus; assay: Compound was tested for hallucinogenic activity in rats at the dose 0.34(mg/kg); Number of rats selecting the LSD lever/ number of rats responding (1/8)
[30] = test system: Rattus norvegicus; assay: Compound was tested for hallucinogenic activity in rats at the dose 0.0025 (mg/kg)
[31] = test system: Rattus norvegicus; assay: Compound was tested for hallucinogenic activity in rats at the dose of 0.0025 (mg/kg); Number of rats selecting the LSDlever/ number of rats responding (0/8)
[32] = test system: Rattus norvegicus; assay: Compound was tested for hallucinogenic activity in rats at the dose of 0.005(mg/kg); Number of rats selecting the LSDlever/ number of rats responding (4/8)
[33] = test system: Rattus norvegicus; assay: Compound was tested for hallucinogenic activity in rats at the dose of 0.02(mg/kg); Number of rats selecting the LSDlever/ number of rats responding (5/8)
[34] = test system: Rattus norvegicus; assay: Compound was tested for hallucinogenic activity in rats at the dose of 0.08(mg/kg); Number of rats selecting the LSDlever/ number of rats responding (8/8)
[35] = test system: Rattus norvegicus; assay: Compound was tested for hallucinogenic activity in rats at the dose of 0.01(mg/kg); Number of rats selecting the LSDlever/ number of rats responding (4/8)
[36] = test system: Rattus norvegicus; assay: Compound was tested for hallucinogenic activity in rats at the dose of 0.04(mg/kg); Number of rats selecting the LSDlever/ number of rats responding (6/8)
[37] = test system: Rattus norvegicus; assay: Compound was tested for hallucinogenic activity in rats at 1.95 dose(mg/kg); Number of rats selecting the LSD lever/ number of rats responding (1/7)
[38] = test system: Rattus norvegicus; assay: Compound was tested for hallucinogenic activity in rats at 2.07 dose(mg/kg); 0/0, highest dose tested
[39] = test system: Rattus norvegicus; assay: Compound was tested for hallucinogenic activity in rats at the dose 0.37(mg/kg); Number of rats selecting the LSD lever/ number of rats responding (0/8)
[40] = test system: Rattus norvegicus; assay: Compound was tested for hallucinogenic activity in rats at the dose 0.73(mg/kg); Number of rats selecting the LSD lever/ number of rats responding (0/8)
[41] = test system: Rattus norvegicus; assay: Compound was tested for hallucinogenic activity in rats at 2.19 dose(mg/kg); 0/1, highest dose tested
[42] = test system: Rattus norvegicus; assay: Compound was tested for hallucinogenic activity in rats at 1.38 dose(mg/kg); Number of rats selecting the LSD lever/ number of rats responding (2/8)
[43] = test system: Rattus norvegicus; assay: Compound was tested for hallucinogenic activity in rats at 1.84 dose(mg/kg); Number of rats selecting the LSD lever/ number of rats responding (3/8)
[44] = test system: Rattus norvegicus; assay: Compound was tested for hallucinogenic activity in rats at the dose 0.34 (mg/kg); Number of rats selecting the LSD lever/ number of rats responding (2/8)
[45] = test system: Rattus norvegicus; assay: Compound was tested for hallucinogenic activity in rats at the dose 0.69(mg/kg); Number of rats selecting the LSD lever/ number of rats responding (0/8)
[46] = test system: Rattus norvegicus; assay: Compound was tested for hallucinogenic activity in rats at 15 dose(mg/kg); 0/0, highest dose tested
[47] = test system: Rattus norvegicus; assay: Compound was tested for hallucinogenic activity in rats at the dose 0.16 (mg/kg)
[48] = test system: Rattus norvegicus; assay: Compound was tested for hallucinogenic activity in rats at 0.16 dose(mg/kg); Number of rats selecting the LSDlever/ number of rats responding (1/8)
[49] = test system: Rattus norvegicus; assay: Compound was tested for hallucinogenic activity in rats at 0.32 dose(mg/kg); Number of rats selecting the LSDlever/ number of rats responding (2/8)
[50] = test system: Rattus norvegicus; assay: Compound was tested for hallucinogenic activity in rats at the 0.63 dose(mg/kg); Number of rats selecting the LSDlever/ number of rats responding (2/8)
[51] = test system: Rattus norvegicus; assay: Compound was tested for hallucinogenic activity in rats at the 1.29 dose(mg/kg); Number of rats selecting the LSDlever/ number of rats responding (7/8)
[52] = test system: Rattus norvegicus; assay: Compound was tested for hallucinogenic activity in rats at 1.38 dose(mg/kg); Number of rats selecting the LSD lever/ number of rats responding (3/8)
[53] = test system: Rattus norvegicus; assay: Compound was tested for hallucinogenic activity in rats at 1.84 dose(mg/kg); 2/4, highest dose tested
[54] = test system: Rattus norvegicus; assay: Compound was tested for hallucinogenic activity in rats at the dose 0.34 (mg/kg); Number of rats selecting the LSD lever/ number of rats responding (0/8)
[55] = test system: Rattus norvegicus; assay: Compound was tested for hallucinogenic activity in rats at 2.19 dose(mg/kg); Number of rats selecting the LSD lever/ number of rats responding (2/8)
[56] = test system: Rattus norvegicus; assay: Compound was tested for hallucinogenic activity in rats at 2.56 dose(mg/kg); Number of rats selecting the LSD lever/ number of rats responding (2/8)
[57] = test system: Rattus norvegicus; assay: Compound was tested for hallucinogenic activity in rats at 2.92 dose(mg/kg); Number of rats selecting the LSD lever/ number of rats responding (3/8)
[58] = test system: Rattus norvegicus; assay: Compound was tested for hallucinogenic activity in rats at 3.65 dose(mg/kg); 0/1, highest dose tested
[59] = test system: Rattus norvegicus; assay: Compound was tested for hallucinogenic activity in rats at 1.83 dose (mg/kg); Number of rats selecting the LSD lever/ number of rats responding (1/8)
[60] = test system: Rattus norvegicus; assay: Compound was tested for hallucinogenic activity in rats at dose 1.46 (mg/kg); Number of rats selecting the LSD lever/ number of rats responding (1/8)
[61] = test system: Rattus norvegicus; assay: Compound was tested for hallucinogenic activity in rats at the dose 0.17 mg/kg); Number of rats selecting the LSD lever/ number of rats responding (3/8)
[62] = test system: Rattus norvegicus; assay: Compound was tested for hallucinogenic activity in rats at the dose 0.37(mg/kg); Number of rats selecting the LSD lever/ number of rats responding (1/8)
[63] = test system: Rattus norvegicus; assay: Compound was tested for hallucinogenic activity in rats at 0.73(mg/kg); Number of rats selecting the LSD lever/ number of rats responding (1/8)
[64] = test system: Rattus norvegicus; assay: Compound was tested for hallucinogenic activity in rats at 0.69 dose(mg/kg); Number of rats selecting the LSD lever/ number of rats responding (4/8)
[65] = test system: Rattus norvegicus; assay: Compound was tested for hallucinogenic activity in rats at 1.82 dose (mg/kg); 0/0, highest dose tested
[66] = test system: Rattus norvegicus; assay: Compound was tested for hallucinogenic activity in rats at dose 1.38(mg/kg); Number of rats selecting the LSD lever/ number of rats responding (4/8)
[67] = test system: Rattus norvegicus; assay: Compound was tested for hallucinogenic activity in rats at dose 1.72 (mg/kg); Number of rats selecting the LSD lever/ number of rats responding (4/8)
[68] = test system: Rattus norvegicus; assay: Compound was tested for hallucinogenic activity in rats at the dose 0.17(mg/kg); Number of rats selecting the LSD lever/ number of rats responding […])
[69] = test system: Rattus norvegicus; assay: Compound was tested for hallucinogenic activity in rats at the dose 0.34(mg/kg); Number of rats selecting the LSD lever/ number of rats responding (2/8)

## CC(N)Cc1ccc2c(c1)OCO2 (racemic) [TENAMFETAMINE]
[1]
  ED50: 0.97 mg/kg
[2]
  ED50: 4.52 µmol/kg
[3]
  Result: 0
[4]
  Result: 2
[5]
  Result: 7
[6]
  Result: 5

## CN[C@H](C)Cc1ccc2c(c1)OCO2
[7]
  Result: 2
[8]
  Result: 3
[9]
  Result: 3
[10]
  Result: 3
[11]
  Result: 4
[12]
  Result: 2
[13]
  Result: 4
[14]
  Result: 2
[15]
  Result: 1
[16]
  Result: 3

## C[C@H](N)Cc1ccc2c(c1)OCO2
[4]
  Result: 2
[17]
  Result: 2
[18]
  Result: 3
[19]
  Result: 1
[20]
  Result: 2
[21]
  Result: 0

## CC[C@H](N)Cc1ccc2c(c1)OCO2
[22]
  ED50: 6 µmol/kg
[23]
  ED50: 1.38 mg/kg
[24]
  Result: 1
[25]
  Result: 8
[26]
  Result: 2
[27]
  Result: 3
[28]
  Result: 3
[15]
  Result: 1
[29]
  Result: 1

## CCN(CC)C(=O)[C@@H]1C=C2c3cccc4[nH]cc(c34)C[C@H]2N(C)C1 [LYSERGIDE]
[30]
  ED50: 0.025 µmol/kg
[31]
  Result: 0
[32]
  Result: 4
[33]
  Result: 5
[34]
  Result: 8
[35]
  Result: 4
[36]
  Result: 6

## CCC(Cc1ccc2c(c1)OCO2)NC (racemic)
[37]
  Result: 1
[38]
  Result: 0
[39]
  Result: 0
[40]
  Result: 0

## CNC(C)Cc1ccc2c(c1)OCO2 (racemic) [MIDOMAFETAMINE]
[41]
  Result: 0
[42]
  Result: 2
[43]
  Result: 3
[44]
  Result: 2
[45]
  Result: 0

## CC[C@@H](Cc1ccc2c(c1)OCO2)NC
[46]
  Result: 0

## C[C@@H](N)Cc1ccc2c(c1)OCO2
[47]
  ED50: 2.94 µmol/kg
[48]
  Result: 1
[49]
  Result: 2
[50]
  Result: 2
[51]
  Result: 7

## CCC(N)Cc1ccc2c(c1)OCO2 (racemic)
[52]
  Result: 3
[53]
  Result: 2
[54]
  Result: 0
[45]
  Result: 0

## CC[C@H](Cc1ccc2c(c1)OCO2)NC
[55]
  Result: 2
[56]
  Result: 2
[57]
  Result: 3
[58]
  Result: 0
[59]
  Result: 1
[60]
  Result: 1
[61]
  Result: 3
[62]
  Result: 1
[63]
  Result: 1

## CN[C@@H](C)Cc1ccc2c(c1)OCO2
[64]
  Result: 4
[65]
  Result: 0
[66]
  Result: 4
[67]
  Result: 4
[68]
  Result: 2
[69]
  Result: 2
